Measured values as given in US11331289B2, “Antimicrobial composition” (priority 2017, dated 2022).
In brackets after ≈: the same amount, converted by molar mass. Read-outs that look alike come from different tables or passages of the source.

How the values were obtained:
MRSP 16127 = test: Time-killing curve, inoculum 5.10^5 CFU/ml (MIC 0.25 μg/ml); assay type: cell-based, Staphylococcus pseudintermedius
Protocol: The objective of this study is to assess in vitro the time-killing curves of oxyclozanide against four strains of Methicillin-Resistant Staphylococcus from dogs.
Two Methicillin-Resistant Staphylococcus aureus (MRSA) and two Methicillin-Resistant Staphylococcus pseudintermedius (MRSP) isolated from the clinics have been tested.
The assessment of time-killing curves has been realized by a broth macrodilution method (Mueller-Hinton II Broth).
Oxyclozanide is diluted in (DMSO) into sterile tubes in order to obtain the following concentrations from 800 to 6.25 μg/ml. Those concentrations and stock standard solution are then diluted (1/10) in Mueller-Hinton II Broth in order to obtain the following concentrations from […] (See Table 2).
Each operation is performed under sterile conditions. Each working standard solution (10*the final active ingredient concentration) is distributed in tubes (1 ml, for a final volume of 10 ml after addition of 9 ml of inoculum). One tube without active ingredient is used as growth control (Concentration=0).
Bacterial isolates are sub-cultured from one cryobead on Columbia agar supplemented with 5% of blood. Pure cultures are incubated during 18-24 hours at 37° C. Three to five isolated colonies of similar appearance are selected from a previous culture and transferred into tubes containing 9 ml of Mueller-Hinton II Broth. The broth is incubated during 12-18 hours at 37° C. 0.5 to 1 ml of this broth is inoculated to another Mueller-Hinton II Broth 9 ml tube which is incubated during 3 to 4 hours at 37° C. to reach the exponential growth phase. The bacterial inoculum grown exponential phase is suspended to an optical density of McFarland standard scale 0.5 equivalent to a bacterial density of 10^8 CFU/ml and then adjusted to a concentration of about 5.10^5 CFU/ml as indicated by the guideline CLSI M26-A and to a second inoculum tested: 10^6 CFU/ml.
9 ml of bacterial inoculum grown to exponential phase is added to 1 ml of active ingredient (or Mueller Hinton II Broth for the growth control). Tubes are incubated at 35° C. during 24 hours.
At times 0, 2, 4, 6 and 24 hours, 100 μl of broth of each tube is sampled and diluted in microplates:
Each well is re-cultured by streaking 10 μl on Columbia agar supplemented with 5% of blood. Plates are incubated at 37° C. during 18-24 hours incubation. Thus, residual bacterial concentrations are determined (CFU/ml). Results are expressed in log10 values of CFU/ml over-time in broth. Due to the procedure used, the minimal bacterial concentration that can be assessed is 10^2 CFU/ml.

Malassezia pachydermatis = test: MIC, microdilution broth method; assay type: cell-based; conditions: for MIC: Malassezia pachydermatis, read-out: MIC
Protocol: Six clinical isolates from dog skin (n=5) and cats (n=1) which had been sent to EnvA (mycology laboratory of BioPôle Alfort) for mycological culture. The isolates, collected in March 2016, were identified as belonging to the species Malassezia pachydermatis. They were maintained by regular transplanting on medium of Sabouraud. Isolates are subcultured 2 to 3 days prior to testing sensitivity.
A stock solution of Oxyclozanide at 1600 μg/mL is prepared in DMSO. The stock solution is then diluted in DMSO to obtain a concentration range of 3.125 μg/ml to 800 μg/ml. A 1/50 dilution of this range and of the stock solution is then carried out in ultrapure water so as to obtain a concentration range of 0.0625 μg/ml to 32 μg/ml and containing 2% of DMSO. 50 μl of these solutions are deposited in wells of a microplate and then 50 μl of inoculum calibrated at 10^6 CFU/ml in Sabouraud/Tween 40 (2%) are added. A range of tested concentrations ranges from 0.0312 μg/mL to 16 μg/mL. The final concentration of DMSO in contact with the inoculum is 1%. The same dilution and seeding protocol was followed with a stock solution of amphotericin B at 1600 μg/ml. A “placebo” (or yeast growth control) column is systematically included in the plates. The plates are incubated at 37 ° C. The reading is done at 24 and 48 h. Several trials were conducted and protocol adjustments were required. In particular, the concentration of the inoculum had to be reduced for antifungal activity to be observed.

- MIC (Malassezia pachydermatis; Isolate 1, Assay 1, 10^6 CFU/ml): 8 µg/mL (≈ 19.9 µM)
- MIC (Malassezia pachydermatis; Isolate 1, Assay 2, 10^6 CFU/ml): 4 µg/mL (≈ 9.96 µM)
- MIC (Malassezia pachydermatis; Isolate 2, Assay 1, 10^6 CFU/ml): 8 µg/mL (≈ 19.9 µM)
- MIC (Malassezia pachydermatis; Isolate 2, Assay 2, 10^6 CFU/ml): 8 µg/mL (≈ 19.9 µM)
- MIC (Malassezia pachydermatis; Isolate 3, Assay 1, 10^6 CFU/ml): 8 µg/mL (≈ 19.9 µM)
- MIC (Malassezia pachydermatis; Isolate 3, Assay 2, 10^6 CFU/ml): 16 µg/mL (≈ 39.9 µM)
- MIC (Malassezia pachydermatis; Isolate 4, Assay 1, 10^6 CFU/ml): > 16 µg/mL
- MIC (Malassezia pachydermatis; Isolate 4, Assay 2, 10^6 CFU/ml): > 16 µg/mL
- MIC (Malassezia pachydermatis; Isolate 5, Assay 1, 10^6 CFU/ml): 8 µg/mL (≈ 19.9 µM)
- MIC (Malassezia pachydermatis; Isolate 5, Assay 2, 10^6 CFU/ml): 8 µg/mL (≈ 19.9 µM)
- MIC (Malassezia pachydermatis; Isolate 6, Assay 1, 10^6 CFU/ml): 8 µg/mL (≈ 19.9 µM)
- MIC (Malassezia pachydermatis; Isolate 6, Assay 2, 10^6 CFU/ml): 16 µg/mL (≈ 39.9 µM)
SMILES: O=C(Nc1cc(Cl)cc(Cl)c1O)c1c(O)c(Cl)cc(Cl)c1Cl [Oxyclozanide]
- Counting results (MRSP 16127; 1 MIC, 0 h): 3.600E+05 CFU/ml
- Counting results (MRSP 16127; 1 MIC, 2 h): 2.300E+05 CFU/ml
- Counting results (MRSP 16127; 1 MIC, 4 h): 1.900E+06 CFU/ml
- Counting results (MRSP 16127; 1 MIC, 6 h): 4.600E+06 CFU/ml
- Counting results (MRSP 16127; 1 MIC, 24 h): 8.100E+08 CFU/ml
- Counting results (MRSP 16127; 2 MIC, 0 h): 3.600E+05 CFU/ml
- Counting results (MRSP 16127; 2 MIC, 2 h): 2.000E+05 CFU/ml
- Counting results (MRSP 16127; 2 MIC, 4 h): 2.400E+05 CFU/ml
- Counting results (MRSP 16127; 2 MIC, 6 h): 2.400E+05 CFU/ml
- Counting results (MRSP 16127; 2 MIC, 24 h): 6.600E+05 CFU/ml
- Counting results (MRSP 16127; 4 MIC, 0 h): 3.600E+05 CFU/ml
- Counting results (MRSP 16127; 4 MIC, 2 h): 1.400E+04 CFU/ml
- Counting results (MRSP 16127; 4 MIC, 4 h): 4.400E+03 CFU/ml
- Counting results (MRSP 16127; 4 MIC, 6 h): 3.500E+03 CFU/ml
- Counting results (MRSP 16127; 4 MIC, 24 h): 1.300E+03 CFU/ml
- Counting results (MRSP 16127; 8 MIC, 0 h): 3.600E+05 CFU/ml
- Counting results (MRSP 16127; 8 MIC, 2 h): 1.600E+03 CFU/ml
- Counting results (MRSP 16127; 8 MIC, 4 h): 4.000E+02 CFU/ml
- Counting results (MRSP 16127; 8 MIC, 6 h): 1.000E+02 CFU/ml
- Counting results (MRSP 16127; 8 MIC, 24 h): 1.000E+02 CFU/ml
- Counting results (MRSP 16127; 16 MIC, 0 h): 3.600E+05 CFU/ml
- Counting results (MRSP 16127; 16 MIC, 2 h): 3.000E+02 CFU/ml
- Counting results (MRSP 16127; 16 MIC, 4 h): 1.000E+02 CFU/ml
- Counting results (MRSP 16127; 16 MIC, 6 h): 1.000E+02 CFU/ml
- Counting results (MRSP 16127; 16 MIC, 24 h): 1.000E+02 CFU/ml
- Time to obtain bactericidal effect at 4 MIC (MRSP 16127; 16127/5.10^5 CFU/ml, >=3 log10 decrease in CFU): 6 to 24 h
- Counting results (MRSP 16127; ¼ MIC, 0 h): 3.600E+05 CFU/ml
- Counting results (MRSP 16127; ¼ MIC, 2 h): 3.900E+05 CFU/ml
- Counting results (MRSP 16127; ¼ MIC, 4 h): 5.900E+06 CFU/ml
- Counting results (MRSP 16127; ¼ MIC, 6 h): 3.400E+07 CFU/ml
- Counting results (MRSP 16127; ¼ MIC, 24 h): 2.900E+10 CFU/ml
- Counting results (MRSP 16127; ½ MIC, 0 h): 3.600E+05 CFU/ml
- Counting results (MRSP 16127; ½ MIC, 2 h): 3.300E+05 CFU/ml
- Counting results (MRSP 16127; ½ MIC, 4 h): 2.700E+06 CFU/ml
- Counting results (MRSP 16127; ½ MIC, 6 h): 2.400E+07 CFU/ml
- Counting results (MRSP 16127; ½ MIC, 24 h): 2.900E+10 CFU/ml
- Activity with respect to Malassezia pachydermatis (Malassezia pachydermatis; isolate 3): no activity
- Activity with respect to Malassezia pachydermatis (Malassezia pachydermatis; six clinical isolates): active
